Results published in patent US11891405B2, “Furo[3,4-b]pyrrole-containing BTK inhibitor” (CHIA TAI TIANQING PHARMACEUTICAL GROUP CO., LTD., priority 2018, dated 2024).
Read-outs that look alike come from different tables or passages of the source.

Assay: In vivo pharmacokinetic assay on mouse
Conditions: ICR mice; for MRT last: read-out: MRT(0-t)
Protocol: EXPERIMENTAL EXAMPLE 4: IN VIVO PHARMACOKINETIC ASSAY ON MOUSE
ICR mice weighing 18-22 g were randomly grouped into 9 mice in each group after being fed for 3-5 days, and administered intragastrically with related compound at a dose of 10 mg/kg, and injected intravenously with the test compound at a dose of 1 mg/kg, respectively. The test animals (ICR mice) were fasted for 12 h before administration and fed for 4 h after administration, and water was freely drunk before and after the experiment and during the experiment. After intragastric administration, 0.1 mL of the blood at the orbit was collected at 0.25 h (15 min), 0.5 h (30 min), 1 h, 2 h, 4 h, 6 h, 8 h, 10 h and 24 h, and after intravenous injection, 0.1 mL of the blood at the orbit was collected at 0.083 h (5 min), 0.167 h (10 min), 0.5 h (30 min), 1 h, 2 h, 6 h, 8 h, 10 h and 24 h. Each mouse was sampled at 3-4 time points, and 3 mice were sampled at each time point. Whole blood was collected and placed in centrifuge tubes containing EDTA-K2 and sodium fluoride, then transferred to a 4° C. centrifuge within 30 min and centrifuged at 4000 rpm for 10 min to separate the plasma. All plasma was collected and immediately stored at −20° C. for testing. 20 μL of a plasma test sample and a standard curve sample were pipetted into 300 μL of acetonitrile solution containing an internal standard (diazepam […]), and the mixture was shaken and mixed for 5 min, and centrifuged at 13,000 rpm for 10 min. 80 μL of supernatant was diluted with 80 μL of ultrapure water, and the mixture was mixed well, form which 1 μL of the sample was pipetted and analyzed by LC/MS/MS, and a chromatogram was recorded. Oral and intravenous exposure of the compounds disclosed herein was evaluated by pharmacokinetic experiments in mice and the results are shown in Table 4.

- t1/2z (ig 10 mg/kg): 142 min
- CLz (iv 1 mg/kg): 340 mL/min/kg
- t1/2z (iv 1 mg/kg): 43.8 min
- bioavailability (mouse, plasma, oral, ig 10 mg/kg vs iv 1 mg/kg, read-out: Absolute bioavailability F %): 72.4%
- AUC(0-inf) (mouse, plasma, po, ig 10 mg/kg): 315 ng·h/mL
- AUC(0-t) (mouse, plasma, po, ig 10 mg/kg): 315 ng·h/mL
- Cmax (mouse, plasma, po, ig 10 mg/kg): 92.7 ng/mL
- Tmax (mouse, plasma, po, ig 10 mg/kg): 15 min
- MRT last (mouse, plasma, po, ig 10 mg/kg): 184 min
- AUC(0-inf) (mouse, plasma, iv 1 mg/kg): 43.6 ng·h/mL
- AUC(0-t) (mouse, plasma, iv 1 mg/kg): 43.6 ng·h/mL
- MRT last (mouse, plasma, iv 1 mg/kg): 31.2 min
- Vd (mouse, plasma, iv 1 mg/kg, read-out: Vz): 21.5 L/kg
SMILES: CC#CC(=O)N1[C@@H]2COC[C@@H]2C[C@H]1c1nc(-c2ccc(C(=O)Nc3ccccn3)cc2)c2c(N)nccn12 [Compound I-1, 4-(8-amino-3-((2S,3aR,6aS)-1-(but-2-ynoyl)hexahydro-1H-furo[3,4-b]pyrrol-2-yl)imidazo [1,5-a]pyrazin-1-yl)-N-(pyridin-2-yl)benzamide]
